# Source: US10035780B2, “Quinazoline scaffold based compounds, pharmaceutical compositions and methods of use thereof” (TECHNION RESEARCH & DEVELOPMENT FOUNDATION LTD., priority 2014, dated 2018)
# “Also recorded” adds a separate entry of the source. Like-named read-outs stand apart in the source and are kept apart here.
# What was measured:
# U118MG cells [1] = assay: Collapse of the mitochondrial membrane potential (ΔΨm) induced by glutamate; format: cell-based, human; settings: glutamate exposed cells
# From the text: (§1) Techniques and parameters assayed are summarized here: Total protein levels (Bradford. Anal Biochem. 1976; 72:248-54); TSPO ligand binding assays (Kugler et al. 2008; Levin et al. 2005; Danovich et al. Eur Neuropsychopharmacol. 2008; 18:24-33) cell death, including apoptosis and necrosis and related molecular biological processes (Soustiel et al. Neuropathol Appl Neurobiol. 2008; 34:412-23; Soustiel et al. Exp Neurol. 2008; 214:201-8; Zeno et al. 2009); mitochondrial transmembrane potential collapse (Chelli et al. Biochem Pharmacol. 2004; 68:125-34; Kugler et al. 2008; Zeno et al., 2009; Shargorodsky et al. Apoptosis. 2012; 17:647-65), reactive oxygen species (ROS) generation as a measure of oxidative stress (Veenman et al. 2008; Zeno et al. 2009); TSPO knockdown (Levin et al. 2005; Zeno et al. 2009); expression levels of mitochondrial TSPO and associated proteins (Veenman et al. 2002; Levin et al. 2005; Veenman et al. 2008); gene expression with RT-PCR and microarray analysis (Bode et al. 2012; Veenman et al. 2012). Parameters of inflammation, immune response, migration, and the cell cycle are also tested. All these approaches can also be applied for quality control of the compounds.
# Compound 1 is very effective at a concentration of 25 μM in this model (in order to achieve the same effect with the classical TSPO ligand PK 11195 a concentration of 50 μM has to be applied (data not shown).
# U118MG cells [2] = assay: ROS generation at mitochondrial levels induced by glutamate (NAO dye); format: cell-based, human
# From the text: as §1
# Next, the fluorescent dye 10-N-Nonyl-Acridine Orange (NAO) was applied to measure reactive oxygen species (ROS) generation at mitochondrial levels. […]
# R6-2 mice [3] = assay: Lifespan of R6-2 mice, transgenic model for Huntington Disease; format: in vivo, mouse; settings: daily s.c. injections 5 days a week from week 5, vs DMSO and saline
# From the text: For the assays described herein systemic injections of kainic in rats were applied and also contusion (Veenman et al. 2002; Soustiel et al. Neuropathol Appl Neurobiol. 2008; Soustiel et al. Exp Neurol. 2008). These models present very well defined cell death in the brain. Cell death in the brain is the major pathological characteristic of progressing neurodegeneration common to brain diseases. As the compounds of the present invention are designed to prevent cell death in the brain as a consequence of disease and progressing brain damage after injury, including behavioral impairments, animal models displaying cell death in the brain are the models of choice for displaying the protective capabilities of the compounds of the invention. For these reasons the R6-2 model for Huntington Disease was chosen to test the effectiveness of Compound 1 and to compare the effectiveness of Compound 1 with those of the compound of U.S. Pat. No. 8,541,428 (Cpd A) and with the classical TSPO ligand PK 11195, as well as other compounds disclosed herein. Compounds 5 and 6 were also tested in the same R6-2 model.
# (§2) R6-2 is a transgenic mouse model for Huntington Disease. Huntington Disease in humans is a hereditary neurodegenerative disease affecting motor performance and finally leading to death of the patients having the disease. R6-2 mice (˜120 CAG repeats B6CBA-Tg(HDexon1)62 Gpb/3J) mice were used for the experiments described below. For this purpose, mice obtained from the Jackson Laboratory (ME) were bred. In particular: males genotype: Hemizygous for Tg(HDexon1)62 Gpb, and females from the wildtype background strain B6CBAF1/J were bred according to the protocol of Jackson Laboratory. The male heterozygote offspring (R6-2 mice) were used for determining life span and motor activity, with and without drug treatment. Drug treatment consisted of daily (5 continuous days a week) subcutaneous injections of mice with 20 μl of: saline (sham control), vehicle DMSO (vehicle control), classic TSPO ligand PK 11195 (15 mg/kg), prior art Compound A (15 mg/kg), Compound 1 (15 mg/kg), and compound 1 (7.5 mg/kg). Drug treatment started on week 5 after birth. Quantities were used according to previous studies regarding TSPO ligands.
# Apart from the behavioral experiments, mice were observed daily, and the day of death was noted. Behavioral experiments included distance covered in an open field apparatus, and tremor measurements.
# R6-2 mice were used as previously described in Example 5. In one experiment, treatment consisted of daily (5 continuous days per week) subcutaneous injections of mice with 20 μl of vehicle DMSO (control, n=10) and Compound 6 (7.5 mg/kg, n=12). In a separate experiment, compound 5 (7.5 mg/kg, n=5) was tested, compared to DMSO control (n=5).
# R6-2 mice [4] = format: in vivo; settings: chronic s.c. treatment
# From the text: as §2, with “ligands. […]” for “ligands.”
# FIG. 6. […] In particular, from week 9, when the first mice death occurred, until week 16, when all mice were dead, average distance covered in an open field, per session, per experimental group, per week was measured in cm. […]
# PC12 cells = assay: Differentiation of PC12 cells to neuron like cells, with glutamate; format: cell-based, rat; settings: 5 days
# Experimental: Cell cultures of various human glial type cell lines (T98G, U87MG, A172, U118MG), as well as human neuronal type cell lines SH-SY 5Y and Be(2)-C were used to test the new compounds. In addition, the rat glioma cell line C6 was used. PC12 cells originating from rats were used as another cell line displaying neuronal characteristics. The applicants also have produced, by genetic manipulation, a modified rat C6 glial cell strain and a modified human U118MG glial type cell strain, both under-expressing the TSPO, which allows to study TSPO specific effects, including of the compounds of the invention, which can be done according to methods described previously (Weisinger et al. Biochemistry. 2004; 43:12315-21; Levin et al. 2005; Zeno et al., 2009).
# Briefly, PC-12 cells were exposed to Cpd 1, in combination with glutamate, basically as described for the cell cultures of Example 1, and remained under that condition for 5 days.
# Stability on storage = format: physicochemical; settings: several months of storage
compound,measurement,setting,value
"CCN(C)C(=O)Oc1nc(-c2ccccc2)nc2ccccc12 [Compound 1, 2-phenylquinazolin-4-yl ethyl(methyl)carbamate]",concentration very effective in preventing ΔΨm collapse,U118MG cells [1],25 µM
same,prevention of ΔΨm collapse induced by glutamate,U118MG cells [1],prevents collapse
same,prevention of ΔΨm collapse induced by glutamate,U118MG cells [1]; listed as Cpd 1,prevented
same,ROS generation at mitochondrial levels induced by glutamate,U118MG cells [2],prevents ROS generation
same,ROS generation at mitochondrial levels induced by glutamate,U118MG cells [2]; listed as Cpd 1,attenuated
same,effect on lifespan,R6-2 mice [3],increases average lifespan; also recorded: extends the life span
same,effect on lifespan,R6-2 mice [3]; listed as compound 1,enhanced lifespan
same,adverse effects,R6-2 mice [4],No adverse effects
same,differentiation of PC12 cells toward neuronal type cells,PC12 cells,able to transform PC-12 cells in cell culture to neuron like cells; also recorded: can induce differentiation
same,stability on storage,Stability on storage,stable over several months of storage
